Experimental data published in article PMC12140300, “Development of Carbon‐11 Labeled Pyrimidine Derivatives as Novel Positron Emission Tomography (PET) Agents Enabling Brain Sigma‐1 Receptor Imaging” (Advanced Science, 2025).

Legend:
σ2R = assay: Ex vivo competitive radioligand binding assay for σ2R, [3H]-DTG; set-up: species or system Dunkin Hartley guinea pig; conditions: selectivity ratio, guinea pig brain membranes
Method: (§1) The ex vivo binding affinities of σRs of CNY‐01 and CNY‐02 were measured using a competitive radioligand binding assay.^[ [35] ^]
The following specific radioligands and tissue sources were used: (a) σ 1R, [^3H] (+)‐pentazocine, Dunkin Hartley guinea pig brain membranes; (b) σ 2R, [^3H]‐DTG, Dunkin Hartley guinea pig brain membranes. […] For σ 2R binding study, the membrane suspension was incubated with [^3H]‐DTG (3 nM), different concentration test compounds, within 400 nM (+)‐SKF10047 to block σ 1R. Nonspecific binding was conducted in both binding assays under similar conditions, adding […] haloperidol. After incubation, the mixture was rapidly filtrated through Whatman GF/B glass filters, washed twice and transferred to scintillation vials, and the radioactivity bound was measured by a Beckman LS 6500 liquid scintillation counter. Inhibition constants (Ki) were calculated based on the Cheng and Prusoff equation after the IC50 values were obtained.

5-HT1A = biological target: T1, 5-HT1A (Homo sapiens, UniProt P08908); assay: PDSP radioligand assay; assay type: binding
T1 construct: purchased NIMH Psychoactive Drug Screening Program (PDSP)
Method: as §1
(§2) Details of individual binding assay conditions and protocols are available at the NIMH PDSP website: https://pdsp.unc.edu/pdspweb/.

5-HT1D = 5-HT1D (Homo sapiens, UniProt P28221); assay: PDSP radioligand assay; assay type: binding
Method: as §1, §2

5-HT1E = biological target: T2, 5-HT1E (Homo sapiens, UniProt P28566); assay: PDSP radioligand assay; assay type: binding
T2 construct: purchased NIMH Psychoactive Drug Screening Program (PDSP)
Method: as §1, §2

5-HT2A = 5-HT2A (Homo sapiens, UniProt P28223); assay: PDSP radioligand assay; assay type: binding
Method: as §1, §2

5-HT2B = 5-HT2B (Homo sapiens, UniProt P41595); assay: PDSP radioligand assay; assay type: binding
Method: as §1, §2

5-HT2C = biological target: T3, 5-HT2C (Homo sapiens, UniProt P28335); assay: PDSP radioligand assay; assay type: binding
T3 sequence (P28335 33-458): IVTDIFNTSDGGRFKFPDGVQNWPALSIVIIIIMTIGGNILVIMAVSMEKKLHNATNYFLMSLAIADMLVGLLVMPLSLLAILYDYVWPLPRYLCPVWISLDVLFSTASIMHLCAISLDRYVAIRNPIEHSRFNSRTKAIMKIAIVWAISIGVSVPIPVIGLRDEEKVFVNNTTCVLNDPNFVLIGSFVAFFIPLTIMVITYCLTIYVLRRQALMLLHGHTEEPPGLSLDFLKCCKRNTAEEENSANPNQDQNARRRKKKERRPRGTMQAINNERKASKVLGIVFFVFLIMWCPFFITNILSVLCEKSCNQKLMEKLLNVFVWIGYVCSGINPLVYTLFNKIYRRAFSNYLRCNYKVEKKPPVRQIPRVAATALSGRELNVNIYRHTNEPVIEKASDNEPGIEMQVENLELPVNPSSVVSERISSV
Method: as §1, §2

5-HT3 = biological target: T4, 5-HT3 (Homo sapiens, UniProt P46098); assay: PDSP radioligand assay; assay type: binding
T4 construct: purchased NIMH Psychoactive Drug Screening Program (PDSP)
Method: as §1, §2

5-HT5A = biological target: T5, 5-HT5A (Homo sapiens, UniProt P47898); assay: PDSP radioligand assay; assay type: binding
T5 construct: purchased NIMH Psychoactive Drug Screening Program (PDSP)
Method: as §1, §2

5-HT7A = 5-HT7A (Homo sapiens, UniProt P34969); assay: PDSP radioligand assay; assay type: binding
Method: as §1, §2

Alpha1A = biological target: T6, Alpha1A (Homo sapiens, UniProt P35348); assay: PDSP radioligand assay; assay type: binding
T6 construct: purchased NIMH Psychoactive Drug Screening Program (PDSP)
Method: as §1, §2

Alpha1D = biological target: T7, Alpha1D (Homo sapiens, UniProt P25100); assay: PDSP radioligand assay; assay type: binding
T7 construct: purchased NIMH Psychoactive Drug Screening Program (PDSP)
Method: as §1, §2

Alpha2A = biological target: T8, Alpha2A (Homo sapiens, UniProt P08913); assay: PDSP radioligand assay; assay type: binding
T8 sequence (P08913 1-465): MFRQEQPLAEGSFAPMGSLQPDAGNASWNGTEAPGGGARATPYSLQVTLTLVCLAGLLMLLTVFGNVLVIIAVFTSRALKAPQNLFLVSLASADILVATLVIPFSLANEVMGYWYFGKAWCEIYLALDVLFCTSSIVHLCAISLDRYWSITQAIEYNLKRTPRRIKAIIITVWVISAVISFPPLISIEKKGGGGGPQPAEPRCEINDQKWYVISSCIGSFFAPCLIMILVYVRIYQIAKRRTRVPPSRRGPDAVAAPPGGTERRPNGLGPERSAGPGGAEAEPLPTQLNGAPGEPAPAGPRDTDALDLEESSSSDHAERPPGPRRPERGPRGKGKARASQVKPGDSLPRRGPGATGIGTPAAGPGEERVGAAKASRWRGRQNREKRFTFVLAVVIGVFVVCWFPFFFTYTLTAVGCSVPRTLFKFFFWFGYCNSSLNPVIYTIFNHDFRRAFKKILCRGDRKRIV
Method: as §1, §2

Beta1 = biological target: T9, Beta1 (Homo sapiens, UniProt P08588); assay: PDSP radioligand assay; assay type: binding
T9 construct: purchased NIMH Psychoactive Drug Screening Program (PDSP)
Method: as §1, §2

Beta2 = biological target: T10, Beta2 (Homo sapiens, UniProt P07550); assay: PDSP radioligand assay; assay type: binding
T10 construct: purchased NIMH Psychoactive Drug Screening Program (PDSP)
Method: as §1, §2

Beta3 = biological target: T11, Beta3 (Homo sapiens, UniProt P13945); assay: PDSP radioligand assay; assay type: binding
T11 construct: purchased NIMH Psychoactive Drug Screening Program (PDSP)
Method: as §1, §2

D1 = D1 (Homo sapiens, UniProt P21728); assay: PDSP radioligand assay; assay type: binding
Method: as §1, §2

D2 = biological target: T12, D2 (Homo sapiens, UniProt P14416); assay: PDSP radioligand assay; assay type: binding
T12 construct: purchased NIMH Psychoactive Drug Screening Program (PDSP)
Method: as §1, §2

D4 = biological target: T13, D4 (Homo sapiens, UniProt P21917); assay: PDSP radioligand assay; assay type: binding
T13 construct: purchased NIMH Psychoactive Drug Screening Program (PDSP)
Method: as §1, §2

GABAA = assay: PDSP radioligand assay; assay type: binding; conditions: 10 µM
Method: as §1, §2

H2 = H2 (Homo sapiens, UniProt P25021); assay: PDSP radioligand assay; assay type: binding
Method: as §1, §2

H3 = H3 (Homo sapiens, UniProt Q9Y5N1); assay: PDSP radioligand assay; assay type: binding
Method: as §1, §2

M2 = biological target: T14, M2 (Homo sapiens, UniProt P08172); assay: PDSP radioligand assay; assay type: binding
T14 construct: purchased NIMH Psychoactive Drug Screening Program (PDSP)
Method: as §1, §2

NET = NET (Homo sapiens, UniProt P23975); assay: PDSP radioligand assay; assay type: binding
PBR = biological target: T15, PBR (Rattus norvegicus, UniProt P16257); assay: PDSP radioligand assay; assay type: binding
T15 construct: purchased NIMH Psychoactive Drug Screening Program (PDSP)

Chain of D1 (P21728 whole entry): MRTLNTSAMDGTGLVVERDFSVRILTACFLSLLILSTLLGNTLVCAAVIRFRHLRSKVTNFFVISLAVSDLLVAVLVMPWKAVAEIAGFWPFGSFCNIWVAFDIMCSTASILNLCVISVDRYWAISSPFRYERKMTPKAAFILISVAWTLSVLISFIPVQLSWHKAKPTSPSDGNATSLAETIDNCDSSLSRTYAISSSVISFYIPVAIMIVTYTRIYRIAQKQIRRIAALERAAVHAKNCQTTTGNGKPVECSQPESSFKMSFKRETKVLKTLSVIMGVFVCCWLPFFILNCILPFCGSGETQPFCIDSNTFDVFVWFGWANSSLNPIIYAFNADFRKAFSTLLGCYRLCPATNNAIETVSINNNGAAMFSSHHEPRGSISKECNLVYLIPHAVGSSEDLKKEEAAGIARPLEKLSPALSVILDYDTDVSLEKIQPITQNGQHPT
Chain of 5-HT2A (P28223 whole entry, species assumed): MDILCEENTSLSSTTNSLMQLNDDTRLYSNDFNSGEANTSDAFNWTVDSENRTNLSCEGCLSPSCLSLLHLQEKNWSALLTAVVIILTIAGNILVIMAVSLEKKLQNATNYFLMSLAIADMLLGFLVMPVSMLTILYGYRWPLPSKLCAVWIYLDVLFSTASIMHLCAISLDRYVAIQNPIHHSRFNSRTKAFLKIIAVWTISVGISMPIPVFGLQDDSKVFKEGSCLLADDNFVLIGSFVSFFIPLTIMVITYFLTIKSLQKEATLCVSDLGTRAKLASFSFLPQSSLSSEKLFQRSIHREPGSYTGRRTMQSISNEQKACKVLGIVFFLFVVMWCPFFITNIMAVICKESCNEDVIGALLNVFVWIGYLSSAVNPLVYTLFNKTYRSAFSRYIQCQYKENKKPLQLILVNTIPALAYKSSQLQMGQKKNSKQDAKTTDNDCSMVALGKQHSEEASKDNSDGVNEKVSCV
Chain of 5-HT7A (P34969 1-445 isoform P34969-2): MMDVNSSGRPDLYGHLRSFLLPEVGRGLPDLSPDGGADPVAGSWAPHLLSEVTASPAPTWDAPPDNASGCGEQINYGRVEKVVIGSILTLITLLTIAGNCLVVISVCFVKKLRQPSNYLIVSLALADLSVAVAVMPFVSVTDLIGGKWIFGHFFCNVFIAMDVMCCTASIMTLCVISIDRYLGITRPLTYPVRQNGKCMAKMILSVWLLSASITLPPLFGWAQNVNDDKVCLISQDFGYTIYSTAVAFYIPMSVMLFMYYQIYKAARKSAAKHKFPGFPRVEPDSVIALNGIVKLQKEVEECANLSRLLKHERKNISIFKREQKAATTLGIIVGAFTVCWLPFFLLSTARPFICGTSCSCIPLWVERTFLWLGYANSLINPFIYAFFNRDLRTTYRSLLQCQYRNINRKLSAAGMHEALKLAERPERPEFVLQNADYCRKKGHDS
Chain of H2 (P25021 whole entry): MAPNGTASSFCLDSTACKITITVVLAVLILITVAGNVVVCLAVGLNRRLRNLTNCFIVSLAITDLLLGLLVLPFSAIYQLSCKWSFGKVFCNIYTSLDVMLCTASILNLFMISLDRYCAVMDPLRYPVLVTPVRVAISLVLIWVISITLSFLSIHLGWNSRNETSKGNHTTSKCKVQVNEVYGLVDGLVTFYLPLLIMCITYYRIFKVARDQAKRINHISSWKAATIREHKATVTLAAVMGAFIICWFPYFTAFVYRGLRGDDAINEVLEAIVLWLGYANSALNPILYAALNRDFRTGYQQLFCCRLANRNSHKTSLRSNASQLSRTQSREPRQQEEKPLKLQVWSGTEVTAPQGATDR
Chain of NET (P23975 whole entry): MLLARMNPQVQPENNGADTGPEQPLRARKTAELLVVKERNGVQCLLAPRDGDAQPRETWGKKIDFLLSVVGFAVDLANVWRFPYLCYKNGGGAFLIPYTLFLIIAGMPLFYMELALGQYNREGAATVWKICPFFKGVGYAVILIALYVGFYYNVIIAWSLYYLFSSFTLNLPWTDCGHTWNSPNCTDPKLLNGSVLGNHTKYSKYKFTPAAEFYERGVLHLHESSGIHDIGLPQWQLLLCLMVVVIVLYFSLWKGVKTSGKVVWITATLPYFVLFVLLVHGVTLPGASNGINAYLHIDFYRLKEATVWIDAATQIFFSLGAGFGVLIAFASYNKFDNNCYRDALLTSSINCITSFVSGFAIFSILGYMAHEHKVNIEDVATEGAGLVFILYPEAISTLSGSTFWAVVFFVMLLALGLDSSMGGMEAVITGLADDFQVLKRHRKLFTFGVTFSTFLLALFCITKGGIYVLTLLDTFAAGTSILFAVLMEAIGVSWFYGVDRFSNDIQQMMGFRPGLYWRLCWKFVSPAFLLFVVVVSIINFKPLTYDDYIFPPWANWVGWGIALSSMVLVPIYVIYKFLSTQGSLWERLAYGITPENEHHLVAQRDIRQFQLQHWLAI
Chain of 5-HT2B (P41595 whole entry, species assumed): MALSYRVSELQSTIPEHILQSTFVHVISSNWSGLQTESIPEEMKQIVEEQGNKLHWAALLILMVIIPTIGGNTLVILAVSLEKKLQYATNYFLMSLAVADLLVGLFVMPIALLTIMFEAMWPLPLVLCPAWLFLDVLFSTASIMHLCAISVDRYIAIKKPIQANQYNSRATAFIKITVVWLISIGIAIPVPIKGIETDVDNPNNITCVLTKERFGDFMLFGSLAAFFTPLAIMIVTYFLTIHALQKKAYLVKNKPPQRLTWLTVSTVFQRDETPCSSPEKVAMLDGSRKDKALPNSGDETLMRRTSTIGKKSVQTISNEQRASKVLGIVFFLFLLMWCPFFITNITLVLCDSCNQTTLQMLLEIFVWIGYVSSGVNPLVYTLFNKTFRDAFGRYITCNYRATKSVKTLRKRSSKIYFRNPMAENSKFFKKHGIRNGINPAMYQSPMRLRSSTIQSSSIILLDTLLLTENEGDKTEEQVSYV
Chain of 5-HT1D (P28221 whole entry, species assumed): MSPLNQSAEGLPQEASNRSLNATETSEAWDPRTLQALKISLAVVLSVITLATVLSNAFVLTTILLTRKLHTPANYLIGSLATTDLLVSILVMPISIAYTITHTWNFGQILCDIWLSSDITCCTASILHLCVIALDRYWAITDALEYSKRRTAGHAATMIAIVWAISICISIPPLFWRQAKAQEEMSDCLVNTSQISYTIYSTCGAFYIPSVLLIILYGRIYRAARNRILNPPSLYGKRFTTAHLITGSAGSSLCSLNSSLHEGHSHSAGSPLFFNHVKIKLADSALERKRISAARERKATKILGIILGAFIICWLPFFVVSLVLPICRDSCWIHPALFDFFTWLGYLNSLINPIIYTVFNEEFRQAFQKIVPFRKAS
Chain of H3 (Q9Y5N1 whole entry): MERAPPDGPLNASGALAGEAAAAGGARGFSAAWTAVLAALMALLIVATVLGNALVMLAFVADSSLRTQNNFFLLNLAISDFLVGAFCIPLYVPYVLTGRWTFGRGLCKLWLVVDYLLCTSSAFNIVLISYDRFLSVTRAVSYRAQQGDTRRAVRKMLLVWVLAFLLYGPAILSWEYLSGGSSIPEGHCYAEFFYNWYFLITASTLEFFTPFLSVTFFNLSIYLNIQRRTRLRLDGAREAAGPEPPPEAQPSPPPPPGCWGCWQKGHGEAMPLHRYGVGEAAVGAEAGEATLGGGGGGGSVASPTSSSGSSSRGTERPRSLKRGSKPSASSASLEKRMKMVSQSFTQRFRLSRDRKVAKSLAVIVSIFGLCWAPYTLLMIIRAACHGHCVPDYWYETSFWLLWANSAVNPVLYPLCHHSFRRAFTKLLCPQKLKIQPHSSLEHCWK
T9 sequence (P08588 whole entry): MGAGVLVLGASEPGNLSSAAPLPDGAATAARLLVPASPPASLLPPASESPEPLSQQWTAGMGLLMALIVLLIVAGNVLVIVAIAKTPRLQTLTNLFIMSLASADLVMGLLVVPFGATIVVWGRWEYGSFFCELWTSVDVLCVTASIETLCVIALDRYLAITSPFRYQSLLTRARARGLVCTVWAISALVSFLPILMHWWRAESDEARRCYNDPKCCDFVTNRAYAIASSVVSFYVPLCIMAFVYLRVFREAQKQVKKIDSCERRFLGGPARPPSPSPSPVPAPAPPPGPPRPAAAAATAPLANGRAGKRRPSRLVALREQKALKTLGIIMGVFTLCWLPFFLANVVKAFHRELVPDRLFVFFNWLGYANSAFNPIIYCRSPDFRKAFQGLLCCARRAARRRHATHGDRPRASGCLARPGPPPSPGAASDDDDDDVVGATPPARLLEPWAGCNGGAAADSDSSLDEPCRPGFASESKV
T4 sequence (P46098 24-478): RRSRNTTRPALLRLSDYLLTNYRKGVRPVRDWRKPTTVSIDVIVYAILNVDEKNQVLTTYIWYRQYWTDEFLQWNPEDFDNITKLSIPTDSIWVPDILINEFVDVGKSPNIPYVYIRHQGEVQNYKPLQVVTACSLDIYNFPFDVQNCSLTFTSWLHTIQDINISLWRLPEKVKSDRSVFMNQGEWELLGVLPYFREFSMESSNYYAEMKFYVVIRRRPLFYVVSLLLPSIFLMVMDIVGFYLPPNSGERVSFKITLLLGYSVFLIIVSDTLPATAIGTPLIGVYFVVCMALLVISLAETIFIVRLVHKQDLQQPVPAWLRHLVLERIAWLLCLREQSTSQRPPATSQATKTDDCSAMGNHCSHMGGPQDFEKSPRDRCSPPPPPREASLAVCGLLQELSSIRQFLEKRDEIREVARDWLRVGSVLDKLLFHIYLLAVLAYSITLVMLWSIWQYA
T2 sequence (P28566 whole entry): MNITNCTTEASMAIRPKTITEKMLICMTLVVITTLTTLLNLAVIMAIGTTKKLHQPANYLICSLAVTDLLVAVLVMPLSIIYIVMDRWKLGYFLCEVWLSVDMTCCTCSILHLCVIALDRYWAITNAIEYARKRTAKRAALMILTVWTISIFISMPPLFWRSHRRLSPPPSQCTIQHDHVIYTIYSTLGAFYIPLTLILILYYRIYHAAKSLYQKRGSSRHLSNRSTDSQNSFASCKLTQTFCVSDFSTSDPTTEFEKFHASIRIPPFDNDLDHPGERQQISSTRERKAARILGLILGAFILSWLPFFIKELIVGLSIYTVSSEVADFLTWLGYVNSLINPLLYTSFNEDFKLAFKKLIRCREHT

| SMILES | σ2R/σ1R (σ2R) | inhibition at 10 µM (5-HT1A) [%] | Ki (5-HT1D) [µM] | inhibition at 10 µM (5-HT1D) [%] | inhibition at 10 µM (5-HT1E) [%] | inhibition at 10 µM (5-HT2A) [%] | Ki (5-HT2B) [µM] | inhibition at 10 µM (5-HT2B) [%] | inhibition at 10 µM (5-HT2C) [%] | inhibition at 10 µM (5-HT3) [%] | inhibition at 10 µM (5-HT5A) [%] | inhibition at 10 µM (5-HT7A) [%] | inhibition at 10 µM (Alpha1A) [%] | inhibition at 10 µM (Alpha1D) [%] | inhibition at 10 µM (Alpha2A) [%] | inhibition at 10 µM (Beta1) [%] | inhibition at 10 µM (Beta2) [%] | inhibition at 10 µM (Beta3) [%] | inhibition at 10 µM (D1) [%] | inhibition at 10 µM (D2) [%] | further results |
| --- | --- | --- | --- | --- | --- | --- | --- | --- | --- | --- | --- | --- | --- | --- | --- | --- | --- | --- | --- | --- | --- |
| COc1ccc(-c2nc(C)c(Cl)c(OCCCN3CCCCC3)n2)cc1 [CNY-01, 5‐chloro‐2‐(4‐methoxyphenyl)‐4‐methyl‐6‐(3‐(piperidin‐1‐yl)propoxy)pyrimidine] | 322 | 17.5 | 2.67 | 91.9 | 31.2 | 36.3 | 0.914 | 77.1 | -5.06 | 7.61 | 31.9 | 59.3 | 21.6 | 23 | 55.9 | 7.15 | 4.03 | 9.11 | 19 | 4.43 | Ki (5-HT7A): 4.7 µM; Ki (Alpha2A): 2.37 µM; inhibition at 10 µM (D4): 48%; Mean % (inhibition) (GABAA): 25.49%; Ki (H2): 0.709 µM; inhibition at 10 µM (H2): 89.7%; Ki (H3): 1.06 µM; inhibition at 10 µM (H3): 62.8%; inhibition at 10 µM (M2): 36.4%; Ki (NET): 2.1 µM; inhibition at 10 µM (NET): 50.4%; inhibition at 10 µM (PBR): 25.8% |
| Cc1nc(-c2ccc(Cl)cc2)nc(OCCCN2CCN(C)CC2)c1Cl [CNY-02, 5‐chloro‐2‐(4‐chlorophenyl)‐4‐methyl‐6‐(3‐(4‐methylpiperazin‐1‐yl)propoxy)pyrimidine] | 627 | -2.49 | 7.28 | 54.5 | 27.8 | 85.5 | 0.53 | 90.4 | 89.4 | -1.23 | 29.4 | -4.02 | -1.08 | -14.8 | 47.6 | 3.55 | 11.7 | -3.01 | 52.1 | -0.57 | Ki (5-HT2A): 0.466 µM; Ki (5-HT2C): 0.268 µM; Ki (D1): 2.34 µM; inhibition at 10 µM (D4): 17.8%; Mean % (inhibition) (GABAA): 32.06%; Ki (H2): 1.24 µM; inhibition at 10 µM (H2): 84.9%; inhibition at 10 µM (H3): 42.9%; inhibition at 10 µM (M2): 29.1%; inhibition at 10 µM (NET): 0.14%; inhibition at 10 µM (PBR): 26% |
